The source of these data is paper PMC11995226, “Linker-Determined Folding and Hydrophobic Interactions Explain a Major Difference in PROTAC Cell Permeability” (ACS Medicinal Chemistry Letters, 2025).

On the set-up of data set [1]: method as in PMID 39693386. The following applies: logarithm of Pe; Data reported recently; cited from earlier work.
Data set [2] in a line: EPSA (experimental polar surface area, chromatographic). Format: physicochemical. The method, then:
1. Experimental and Computational Methods […]
EPSA. EPSA retention times for 1 and 2 were determined at Sygnature Discovery. In brief, the
EPSA assay was performed on a Waters Acquity UPC2 system equipped with a PDA and a
QDa detector, using a Phenomenex Chirex (S)-VAL and (R)-NEA LC column (50 x 4.6 mm).
A gradient of MeOH, containing 20 mM ammonium formate, in CO2 was used as eluent.

A short description of data set [3]: FaSSIF and FeSSIF solubility. In kind it is physicochemical. The protocol:
1. Experimental and Computational Methods
Fasted and Fed State Simulated Intestinal Fluid (FaSSIF and FeSSIF) Solubility.
Suspensions of amorphous 1 and 2 were stirred at 37 °C in FaSSIF and FeSSIF for 24 h ± 4 h
prior to filtration and analysis of the filtrate. The solubility was determined via HPLC-MS
analysis of the filtrate using a calibration curve (external standard). […]

Details of data set [4]: method as in PMID 39693386. Particulars: Data reported recently; cited from earlier work.
Setting [5] is: FaSSIF, pH 6.5, 37 °C, read-out: Solubility FaSSIF, pH 6.5.
The mark [6] stands for this setting: FeSSIF, pH 5.0, 37 °C, read-out: Solubility FeSSIF, pH 5.0.

The structures appear in SMILES notation. Converted amounts (≈) assume the structure as drawn. Where two headings read alike, the source gives them in different places.

As to `Cc1ncsc1-c1ccc(CNC(=O)[C@@H]2C[C@@H](O)CN2C(=O)[C@@H](NC(=O)CCOCCOCCOc2cnc3c(C4CCN(C(=O)c5ccc(OC(F)(F)F)cc5)CC4)ncnc3c2)C(C)(C)C)cc1` [PROTAC 2], the “PAMPA Log[Pe (cm/s)]” value in data set [1] is given as -5.4 log10(Pe in cm/s). Besides, in data set [2], the EPSA came to 91.5 A^2. Also, the solubility – broadly, the concentration that dissolves in the medium under given conditions – at 24 h worked out at 53.2 µM (≈ 52.7 µg/mL) in data set [3] (setting [5]) and 349 µM (≈ 346 µg/mL) in data set [3] (setting [6]).

As to `Cc1ncsc1-c1ccc(CNC(=O)[C@@H]2C[C@@H](O)CN2C(=O)[C@@H](NC(=O)CCCCCCCCOc2cnc3c(C4CCN(C(=O)c5ccc(OC(F)(F)F)cc5)CC4)ncnc3c2)C(C)(C)C)cc1` [PROTAC 1], in data set [1], the “PAMPA Log[Pe (cm/s)]” value was -8.3 log10(Pe in cm/s). Moreover, the EPSA in data set [2] is 93.1 A^2. Besides, the solubility at 24 h is 18.6 µM (≈ 18.4 µg/mL) in data set [3] (setting [5]) and 174 µM (≈ 172 µg/mL) in data set [3] (setting [6]). The “Solubility PBS, pH 6.5” value in data set [4] is reported as under 0.1 μM.
